# Measurements published in publication PMC3371188 (Applied Microbiology and Biotechnology, 2012).
# Biological target: AldO (Streptomyces coelicolor, UniProt Q9ZBU1)
# Assay: HRP-coupled H2O2 assay, thermostability and temperature optimum
# Assay type: biochemical
# Settings: 10 mM xylitol; 50 mM potassium phosphate pH 7.5
# Sequence of AldO (Q9ZBU1 whole entry): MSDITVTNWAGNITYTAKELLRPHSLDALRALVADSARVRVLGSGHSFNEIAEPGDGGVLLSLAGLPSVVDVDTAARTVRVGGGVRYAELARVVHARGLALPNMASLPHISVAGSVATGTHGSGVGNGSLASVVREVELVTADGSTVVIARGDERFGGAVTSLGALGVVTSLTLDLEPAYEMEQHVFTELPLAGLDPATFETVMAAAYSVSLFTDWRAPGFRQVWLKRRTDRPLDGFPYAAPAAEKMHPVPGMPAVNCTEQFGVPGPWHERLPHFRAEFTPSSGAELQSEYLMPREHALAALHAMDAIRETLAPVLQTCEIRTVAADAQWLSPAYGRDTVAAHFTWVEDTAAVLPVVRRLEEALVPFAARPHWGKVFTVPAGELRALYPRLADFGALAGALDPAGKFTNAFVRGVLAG
structure (smiles),measurement,value
OC[C@@H](O)[C@H](O)[C@@H](O)CO [xylitol],"HRP-coupled H2O2 assay, thermostability and temperature optimum",Oxidase activity with xylitol as substrate was measured after enzyme solutions had been incubated
